Assays:
VAP-1 [1] = molecular target: T1, VAP-1 (Homo sapiens, UniProt Q16853); assay: SSAO (amine oxidase) activity of VAP-1 transfected cells, radiochemical [14C]-benzylamine and fluorometric Amplex Red H2O2 assays; format: cell-based; set-up: expressed in transfected cells; host or cells: Ax endothelial cells or CHO cells; conditions: for % of inhibition: VAP-1 transfected Ax endothelial or CHO cells, benzylamine substrate, 30 min pre-incubation at 37° C., agents at 1 mg/ml and 100 μg/ml (concentration not given), representative of 2 to 5 experiments; for effect on enzymatic (SSAO) activity of VAP-1, in words: VAP-1 transfected cells, summary of Table I
T1 sequence (Q16853 1-763): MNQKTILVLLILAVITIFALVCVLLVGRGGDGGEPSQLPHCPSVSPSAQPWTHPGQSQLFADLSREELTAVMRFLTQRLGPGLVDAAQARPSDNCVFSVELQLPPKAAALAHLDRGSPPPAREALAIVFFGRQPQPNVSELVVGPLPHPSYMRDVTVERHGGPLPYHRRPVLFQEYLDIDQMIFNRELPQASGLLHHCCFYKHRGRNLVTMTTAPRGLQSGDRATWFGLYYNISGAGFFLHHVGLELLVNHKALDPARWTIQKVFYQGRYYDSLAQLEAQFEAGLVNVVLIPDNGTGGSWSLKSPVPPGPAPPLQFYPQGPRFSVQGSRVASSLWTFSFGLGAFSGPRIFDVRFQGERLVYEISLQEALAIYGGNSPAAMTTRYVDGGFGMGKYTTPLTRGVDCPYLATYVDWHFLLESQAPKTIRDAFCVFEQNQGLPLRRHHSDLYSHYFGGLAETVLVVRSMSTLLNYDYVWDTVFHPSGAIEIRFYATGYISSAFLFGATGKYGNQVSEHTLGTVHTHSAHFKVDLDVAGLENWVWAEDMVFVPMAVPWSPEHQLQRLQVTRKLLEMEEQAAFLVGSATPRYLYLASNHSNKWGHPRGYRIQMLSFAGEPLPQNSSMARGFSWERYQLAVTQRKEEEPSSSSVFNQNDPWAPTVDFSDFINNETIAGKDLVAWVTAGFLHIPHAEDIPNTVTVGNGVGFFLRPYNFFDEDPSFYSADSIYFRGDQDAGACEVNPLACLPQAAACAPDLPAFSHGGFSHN
Method: Amine oxidase activity was assayed radiochemically using [7-^14C]-benzylamine hydrochloride (spec. act. 57 mCi/mmol, Amersham) as a substrate. In brief, the cells (VAP-1 transfected Ax endothelial cells or VAP-1 transfected CHO cells and their mock transfected controls) were seeded onto gelatin-coated 24-well tissue culture plates and allowed to reach confluence. Prior to experiments, the cells were rinsed twice with RPMI 1640 and pre-incubated 30 min at 37° C. in 0.3 ml RPMI-1640 medium containing amikacin, tobramycin, gentamicin, streptomicin or geneticin (1 mg/ml). The reaction was initiated by addition of 6 μmol/L [^14C]-benzylamine (40000 dpm) and terminated after 1 hour by citric acid. The aldehydes were extracted into toluene containing diphenyloxazole and the formation of [^14C]-labelled benzaldehyde was quantified by scintillation counting.
SSAO activity of the cells was also independently measured using Amplex Red reagent (10-acetyl-3,7-dihydroxyphenoxazine; Molecular Probes Europe BV), a highly sensitive and stable probe for H2O2. Cultured cells (VAP-1 transfected Ax endothelial cells or VAP-1 transfected CHO cells and their mock transfected controls) were rinsed with Krebs Ringer phosphate glucose (KRPG; 145 mM NaCl, 5.7 mM sodium phosphate, 4.86 mM KCl, 0.54 mM CaCl2, 1.22 mM MgSO4, 5.5 mM glucose, pH 7.35) and pre-incubated 30 min at 37° C. in 200 μl KRPG containing amikacin, tobramycin, gentamicin, netilmicin, streptomycin, geneticin, glucosamine, mannosamine, galactosamine, or puromycin (1 mg/ml and 100 μg/ml). Catalytic reaction was initiated by addition of benzylamine as substrates and H2O2-detecting mixture containing horseradish peroxidase (final concentration 0.8 U/ml) and Amplex Red reagent (60 μM). The plates were incubated for 1-2 hours at 37° C. in the final volume of 250 μl, the bathing medium was clarified by centrifugation and placed in aliquots (200 μl) into white non-phosphorescent microplates (Cliniplate). Fluorescence intensity of the samples was measured (excitation, 545 nm; emission, 590 nm; Tecan ULTRA fluoropolarometer) and H2O2 concentration was calculated from calibration curves generated by serial dilutions of either standard H2O2 or resorufin, the product of the Amplex Red reaction (Molecular Probes).

VAP-1 [2] = molecular target: T1, VAP-1; assay: Tobramycin serum concentration after intravenous injection in VAP KO+TG versus VAP KO mice (fluorescence polarization immunoassay); format: in vivo, mouse; set-up: expressed in transfected cells; host or cells: mTIEhVAP-1 transgenic / mouse VAP-1 knockout mice (VAP KO+TG), expression on vasculature; conditions: 3 mg/kg intravenously
Text: The mTIEhVAP-1 line E35 mice expressing human VAP-1 on vasculature were crossed to VAP-1 knockout mice that were previously created by using conventional gene targeting techniques to replace the mouse VAP-1 gene with a nonfunctional mutant-allele. The mTIEhVAP-1 transgene, mouse VAP-1 mutant-allele and endogenous mouse VAP-1 allele were all identified by PCR screening of purified genomic DNA with specific primers and verified immunohistochemically with human and mouse VAP-1 antibodies.
These mice and VAP KO mice as controls received intravenously tobramycin 3 mg/kg and tobramycin concentration from serum was measured after 30 min, 1, 2 and 3 hours after injections using fluorescence polarization immunoassay.

Row | Molecule | % of inhibition (VAP-1 [1]) | effect on enzymatic (SSAO) activity of VAP-1, in words (VAP-1 [1]) | tobramycin concentration in serum, VAP KO+TG mice compared with VAP KO mice (VAP-1 [2]; at 2 and 3 hours, mice expressing human VAP-1 vs VAP KO mice) | difference in serum tobramycin concentration between VAP KO mice and VAP KO+TG mice (VAP-1 [2]; at 3 hours)
1 | NCC[C@H](O)C(=O)N[C@@H]1C[C@H](N)[C@@H](O[C@H]2O[C@H](CN)[C@@H](O)[C@H](O)[C@H]2O)[C@H](O)[C@H]1O[C@H]1O[C@H](CO)[C@@H](O)[C@H](N)[C@H]1O [Amikacin, amikacin] | 84% | diminished to variable extent |  | 
2 | N[C@H]1C(O)O[C@H](CO)[C@H](O)[C@@H]1O (some centres unmarked) [Galactosamine, galactosamine] | 12% | did not significantly inhibit |  | 
3 | CN[C@@H]1[C@@H](O)[C@@H](O[C@@H]2[C@@H](O)[C@H](O[C@H]3O[C@H]([C@@H](C)O)[C@@H](O)[C@H](O)[C@H]3N)[C@@H](N)C[C@H]2N)OC[C@]1(C)O [Geneticin, geneticin] | 46% |  |  | 
4 | N[C@H]1C(O)O[C@H](CO)[C@@H](O)[C@@H]1O (some centres unmarked) [Glucosamine, glucosamine] | 0% | did not significantly inhibit |  | 
5 | N[C@@H]1C(O)O[C@H](CO)[C@@H](O)[C@@H]1O (some centres unmarked) [Mannosamine, mannosamine] | 20% | did not significantly inhibit |  | 
6 | CCN[C@@H]1C[C@H](N)[C@@H](O[C@H]2OC(CN)=CC[C@H]2N)[C@H](O)[C@H]1O[C@H]1OC[C@](C)(O)[C@H](NC)[C@H]1O [Netilmicin, netilmicin] | 45% | diminished to variable extent |  | 
7 | COc1ccc(C[C@H](N)C(=O)N[C@H]2[C@@H](O)[C@H](n3cnc4c(N(C)C)ncnc43)O[C@@H]2CO)cc1 [Puromycin, puromycin] | 59% | diminished to variable extent |  | 
8 | [H]/N=C(/N)N[C@H]1[C@H](O)[C@@H](O)[C@H](O[C@@H]2O[C@@H](C)[C@](O)(C=O)[C@H]2O[C@@H]2O[C@@H](CO)[C@H](O)[C@@H](O)[C@@H]2NC)[C@@H](N/C(N)=N\[H])[C@@H]1O [Streptomicin, streptomycin] | 5% |  |  | 
9 | NC[C@H]1O[C@H](O[C@H]2[C@H](O)[C@@H](O[C@H]3O[C@H](CO)[C@@H](O)[C@H](N)[C@H]3O)[C@H](N)C[C@@H]2N)[C@H](N)C[C@@H]1O [Tobramycin, tobramycin] | 78% | diminished to variable extent | lower concentrations | two fold
10 | gentamicin | 46% | diminished to variable extent |  | 
